Laboratory results published in patent US10189816B2, “Substituted pyridines as inhibitors of human immunodeficiency virus replication” (priority 2015, dated 2019).

Each molecule was assayed on NL-RLuc virus (assay: Inhibition of HIV replication (NL-RLuc reporter virus in MT-2 cells, luciferase readout)). Details: Human immunodeficiency virus 1, MT2, 120 h, read-out: Activity.
Format: cell-based
Text: Inhibition of HIV replication: A recombinant NL-RLuc proviral clone was constructed in which a section of the nef gene from NL4-3 was replaced with the Renilla Luciferase gene. This virus is fully infectious and can undergo multiple cycles of replication in cell culture. In addition, the luciferous reporter provides a simple and easy method for quantitating the extent of virus growth and consequently, the antiviral activity of test compounds. The plasmid pNLRLuc contains the proviral NL-Rluc DNA cloned into pUC18 at the PvuII site. The NL-RLuc virus was prepared by transfection of 293T cells with the plasmid pNLRLuc. Transfections were performed using the LipofectAMINE PLUS kit from Invitrogen (Carlsbad, Calif.) according to the manufacturer and the virus generated was titered in MT-2 cells. For susceptibility analyses, the titrated virus was used to infect MT-2 cells in the presence of compound, and after 5 days of incubation, cells were processed and quantitated for virus growth by the amount of expressed luciferase. Assay media was RPMI 1640 supplemented with 10% heat inactivated fetal bovine serum (FBS), 100 units/ml penicillin G/100 units/ml streptomycin, 10 mM HEPES buffer pH 7.55 and 2 mM L-glutamine. The results from at least 2 experiments were used to calculate the EC50 values. Luciferase was quantitated using the Dual Luciferase kit from Promega (Madison, Wis.). Susceptibility of viruses to compounds was determined by incubation in the presence of serial dilutions of the compound. The 50% effective concentration (EC50) was calculated by using the exponential form of the median effect equation where (Fa)=1/[1+(ED50/drug conc.)^m] (Johnson V A, Byington R T. Infectivity Assay. In Techniques in HIV Research. ed. Aldovini A, Walker B D. 71-76. New York: Stockton Press.1990). Activity equal to A refers to a compound having an EC50≤100 nM, while B and C denote compounds having an EC50 between 100 nM and 1 uM (B) or >1 uM (C).

Q: How did the EC50 turn out when `Cc1nc(C)c([C@H](OC(C)(C)C)C(=O)O)c(N2CCC(C)(C)CC2)c1-c1ccc2c(c1)CCN(Cc1cccc(C(C)C)c1)C2` [Compound 36, (S)-2-(tert-butoxy)-2-(4-(4,4-dimethylpiperidin-1-yl)-5-(2-(3-isopropylbenzyl)-1,2,3,4-tetrahydroisoquinolin-6-yl)-2,6-dimethylpyridin-3-yl)acetic acid] was run?
A: < 0.1 µM

Q: How did the EC50 turn out when `Cc1nc(C)c([C@H](OC(C)(C)C)C(=O)O)c(N2CCC(C)(C)CC2)c1-c1ccc2c(c1)CCN(Cc1ccc(F)c(F)c1)C2` [Compound 37, (S)-2-(tert-butoxy)-2-(5-(2-(3,4-difluorobenzyl)-1,2,3,4-tetrahydroisoquinolin-6-yl)-4-(4,4-dimethylpiperidin-1-yl)-2,6-dimethylpyridin-3-yl)acetic acid] was run?
A: < 0.1 µM

Q: Which EC50 does the source give for `Cc1nc(C)c([C@H](OC(C)(C)C)C(=O)O)c(N2CCC(C)(C)CC2)c1-c1ccc2c(c1)CCN(Cc1cc(F)ccc1F)C2` [Compound 38, (S)-2-(tert-butoxy)-2-(5-(2-(2,5-difluorobenzyl)-1,2,3,4-tetrahydroisoquinolin-6-yl)-4-(4,4-dimethylpiperidin-1-yl)-2,6-dimethylpyridin-3-yl)acetic acid] here?
A: < 0.1 µM

Q: How did the EC50 turn out when `Cc1nc(C)c([C@H](OC(C)(C)C)C(=O)O)c(N2CCC(C)(C)CC2)c1-c1ccc2c(c1)CCN(Cc1ccc(Cl)cc1F)C2` [Compound 39, (S)-2-(tert-butoxy)-2-(5-(2-(4-chloro-2-fluorobenzyl)-1,2,3,4-tetrahydroisoquinolin-6-yl)-4-(4,4-dimethylpiperidin-1-yl)-2,6-dimethylpyridin-3-yl)acetic acid] was run?
A: < 0.1 µM

Q: Which EC50 does the source give for `Cc1nc(C)c([C@H](OC(C)(C)C)C(=O)O)c(N2CCC(C)(C)CC2)c1-c1ccc2c(c1)CCN(Cc1cccc(Cl)c1Cl)C2` [Compound 40, (S)-2-(tert-butoxy)-2-(5-(2-(2,3-dichlorobenzyl)-1,2,3,4-tetrahydroisoquinolin-6-yl)-4-(4,4-dimethylpiperidin-1-yl)-2,6-dimethylpyridin-3-yl)acetic acid] here?
A: < 0.1 µM

Q: With `Cc1nc(C)c([C@H](OC(C)(C)C)C(=O)O)c(N2CCC(C)(C)CC2)c1-c1ccc2c(c1)CCN(Cc1ccc(F)c(F)c1F)C2` [Compound 41, (S)-2-(tert-butoxy)-2-(4-(4,4-dimethylpiperidin-1-yl)-2,6-dimethyl-5-(2-(2,3,4-trifluorobenzyl)-1,2,3,4-tetrahydroisoquinolin-6-yl)pyridin-3-yl)acetic acid] as the molecule, how does the EC50 read?
A: < 0.1 µM

Q: For `Cc1nc(C)c([C@H](OC(C)(C)C)C(=O)O)c(N2CCC(C)(C)CC2)c1-c1ccc2c(c1)CCN(Cc1cc(Cl)ccc1F)C2` [Compound 42, (S)-2-(tert-butoxy)-2-(5-(2-(5-chloro-2-fluorobenzyl)-1,2,3,4-tetrahydroisoquinolin-6-yl)-4-(4,4-dimethylpiperidin-1-yl)-2,6-dimethylpyridin-3-yl)acetic acid], which EC50 is on record?
A: < 0.1 µM

Q: For `Cc1nc(C)c([C@H](OC(C)(C)C)C(=O)O)c(N2CCC(C)(C)CC2)c1-c1ccc2c(c1)CCN(Cc1cc(F)cc(Cl)c1)C2` [Compound 43, (S)-2-(tert-butoxy)-2-(5-(2-(3-chloro-5-fluorobenzyl)-1,2,3,4-tetrahydroisoquinolin-6-yl)-4-(4,4-dimethylpiperidin-1-yl)-2,6-dimethylpyridin-3-yl)acetic acid], which EC50 is on record?
A: < 0.1 µM

Q: `Cc1nc(C)c([C@H](OC(C)(C)C)C(=O)O)c(N2CCC(C)(C)CC2)c1-c1ccc2c(c1)CCN(Cc1c(F)ccc(F)c1F)C2` [Compound 44, (S)-2-(tert-butoxy)-2-(4-(4,4-dimethylpiperidin-1-yl)-2,6-dimethyl-5-(2-(2,3,6-trifluorobenzyl)-1,2,3,4-tetrahydroisoquinolin-6-yl)pyridin-3-yl)acetic acid] was tested. Which EC50 did it give?
A: < 0.1 µM

Q: With `Cc1nc(C)c([C@H](OC(C)(C)C)C(=O)O)c(N2CCC(C)(C)CC2)c1-c1ccc2c(c1)CCN(Cc1cc(F)ccc1Cl)C2` [Compound 45, (S)-2-(tert-butoxy)-2-(5-(2-(2-chloro-5-fluorobenzyl)-1,2,3,4-tetrahydroisoquinolin-6-yl)-4-(4,4-dimethylpiperidin-1-yl)-2,6-dimethylpyridin-3-yl)acetic acid] as the molecule, how does the EC50 read?
A: < 0.1 µM

Q: `Cc1cc(F)cc(CN2CCc3cc(-c4c(C)nc(C)c([C@H](OC(C)(C)C)C(=O)O)c4N4CCC(C)(C)CC4)ccc3C2)c1` [Compound 46, (S)-2-(tert-butoxy)-2-(4-(4,4-dimethylpiperidin-1-yl)-5-(2-(3-fluoro-5-methylbenzyl)-1,2,3,4-tetrahydroisoquinolin-6-yl)-2,6-dimethylpyridin-3-yl)acetic acid] was tested. Which EC50 did it give?
A: < 0.1 µM

Q: With `Cc1ccc(F)cc1CN1CCc2cc(-c3c(C)nc(C)c([C@H](OC(C)(C)C)C(=O)O)c3N3CCC(C)(C)CC3)ccc2C1` [Compound 47, (S)-2-(tert-butoxy)-2-(4-(4,4-dimethylpiperidin-1-yl)-5-(2-(5-fluoro-2-methylbenzyl)-1,2,3,4-tetrahydroisoquinolin-6-yl)-2,6-dimethylpyridin-3-yl)acetic acid] as the molecule, how does the EC50 read?
A: < 0.1 µM

Q: Which EC50 does the source give for `Cc1ccc(F)c(CN2CCc3cc(-c4c(C)nc(C)c([C@H](OC(C)(C)C)C(=O)O)c4N4CCC(C)(C)CC4)ccc3C2)c1F` [Compound 48, (S)-2-(tert-butoxy)-2-(5-(2-(2,6-difluoro-3-methylbenzyl)-1,2,3,4-tetrahydroisoquinolin-6-yl)-4-(4,4-dimethylpiperidin-1-yl)-2,6-dimethylpyridin-3-yl)acetic acid] here?
A: < 0.1 µM

Q: With `Cc1nc(C)c([C@H](OC(C)(C)C)C(=O)O)c(N2CCC(C)(C)CC2)c1-c1ccc2c(c1)CCN(Cc1cc(F)c(F)cc1F)C2` [Compound 49, (S)-2-(tert-butoxy)-2-(4-(4,4-dimethylpiperidin-1-yl)-2,6-dimethyl-5-(2-(2,4,5-trifluorobenzyl)-1,2,3,4-tetrahydroisoquinolin-6-yl)pyridin-3-yl)acetic acid] as the molecule, how does the EC50 read?
A: < 0.1 µM

Q: With `Cc1nc(C)c([C@H](OC(C)(C)C)C(=O)O)c(N2CCC(C)(C)CC2)c1-c1ccc2c(c1)CCN(Cc1c(F)cccc1F)C2` [Compound 50, (S)-2-(tert-butoxy)-2-(5-(2-(2,6-difluorobenzyl)-1,2,3,4-tetrahydroisoquinolin-6-yl)-4-(4,4-dimethylpiperidin-1-yl)-2,6-dimethylpyridin-3-yl)acetic acid] as the molecule, how does the EC50 read?
A: < 0.1 µM

Q: How did the EC50 turn out when `Cc1cccc(F)c1CN1CCc2cc(-c3c(C)nc(C)c([C@H](OC(C)(C)C)C(=O)O)c3N3CCC(C)(C)CC3)ccc2C1` [Compound 51, (S)-2-(tert-butoxy)-2-(4-(4,4-dimethylpiperidin-1-yl)-5-(2-(2-fluoro-6-methylbenzyl)-1,2,3,4-tetrahydroisoquinolin-6-yl)-2,6-dimethylpyridin-3-yl)acetic acid] was run?
A: < 0.1 µM

Q: How did the EC50 turn out when `Cc1nc(C)c([C@H](OC(C)(C)C)C(=O)O)c(N2CCC(C)(C)CC2)c1-c1ccc2c(c1)CCN(Cc1ccc(Cl)cc1Cl)C2` [Compound 53, (S)-2-(tert-butoxy)-2-(5-(2-(2,4-dichlorobenzyl)-1,2,3,4-tetrahydroisoquinolin-6-yl)-4-(4,4-dimethylpiperidin-1-yl)-2,6-dimethylpyridin-3-yl)acetic acid] was run?
A: < 0.1 µM

Q: `Cc1cccc(CN2CCc3cc(-c4c(C)nc(C)c([C@H](OC(C)(C)C)C(=O)O)c4N4CCC(C)(C)CC4)ccc3C2)c1F` [Compound 54, (S)-2-(tert-butoxy)-2-(4-(4,4-dimethylpiperidin-1-yl)-5-(2-(2-fluoro-3-methylbenzyl)-1,2,3,4-tetrahydroisoquinolin-6-yl)-2,6-dimethylpyridin-3-yl)acetic acid] was tested. Which EC50 did it give?
A: < 0.1 µM

Q: With `Cc1nc(C)c([C@H](OC(C)(C)C)C(=O)O)c(N2CCC(C)(C)CC2)c1-c1ccc2c(c1)CCN(Cc1ccccc1Cl)C2` [Compound 55, (S)-2-(tert-butoxy)-2-(5-(2-(2-chlorobenzyl)-1,2,3,4-tetrahydroisoquinolin-6-yl)-4-(4,4-dimethylpiperidin-1-yl)-2,6-dimethylpyridin-3-yl)acetic acid] as the molecule, how does the EC50 read?
A: < 0.1 µM

Q: Which EC50 does the source give for `Cc1nc(C)c([C@H](OC(C)(C)C)C(=O)O)c(N2CCC(C)(C)CC2)c1-c1ccc2c(c1)CCN(Cc1ccc(Cl)cc1)C2` [Compound 56, (S)-2-(tert-butoxy)-2-(5-(2-(4-chlorobenzyl)-1,2,3,4-tetrahydroisoquinolin-6-yl)-4-(4,4-dimethylpiperidin-1-yl)-2,6-dimethylpyridin-3-yl)acetic acid] here?
A: < 0.1 µM

Same assay, conditions: Human immunodeficiency virus 1, MT2, 120 h, read-out: EC50 μM

Q: For `Cc1nc(C)c([C@H](OC(C)(C)C)C(=O)O)c(N2CCC(C)(C)CC2)c1-c1ccc2c(c1)CCN(Cc1cc(F)ccc1F)C2` [Compound 38, (S)-2-(tert-butoxy)-2-(5-(2-(2,5-difluorobenzyl)-1,2,3,4-tetrahydroisoquinolin-6-yl)-4-(4,4-dimethylpiperidin-1-yl)-2,6-dimethylpyridin-3-yl)acetic acid], which EC50 is on record?
A: 0.006 µM

Q: How did the EC50 turn out when `Cc1nc(C)c([C@H](OC(C)(C)C)C(=O)O)c(N2CCC(C)(C)CC2)c1-c1ccc2c(c1)CCN(Cc1cc(F)ccc1Cl)C2` [Compound 45, (S)-2-(tert-butoxy)-2-(5-(2-(2-chloro-5-fluorobenzyl)-1,2,3,4-tetrahydroisoquinolin-6-yl)-4-(4,4-dimethylpiperidin-1-yl)-2,6-dimethylpyridin-3-yl)acetic acid] was run?
A: 0.003 µM

Q: How did the EC50 turn out when `Cc1cccc(F)c1CN1CCc2cc(-c3c(C)nc(C)c([C@H](OC(C)(C)C)C(=O)O)c3N3CCC(C)(C)CC3)ccc2C1` [Compound 51, (S)-2-(tert-butoxy)-2-(4-(4,4-dimethylpiperidin-1-yl)-5-(2-(2-fluoro-6-methylbenzyl)-1,2,3,4-tetrahydroisoquinolin-6-yl)-2,6-dimethylpyridin-3-yl)acetic acid] was run?
A: 0.003 µM

Same assay, conditions: NL-RLuc virus in MT-2 cells, 5 days of incubation, luciferase; at least 2 experiments; read-out: Activity

Q: Which EC50 does the source give for `Cc1ccc(C(F)(F)F)cc1CN1CCc2cc(-c3c(C)nc(C)c([C@H](OC(C)(C)C)C(=O)O)c3N3CCC(C)(C)CC3)ccc2C1` [Compound 52, (S)-2-(tert-butoxy)-2-(4-(4,4-dimethylpiperidin-1-yl)-2,6-dimethyl-5-(2-(2-methyl-5-(trifluoromethyl)benzyl)-1,2,3,4-tetrahydroisoquinolin-6-yl)pyridin-3-yl)acetic acid] here?
A: < 0.1 µM
